Laboratory results reported in ChEMBL document CHEMBL1201862, “PubChem BioAssay data set” (2004).
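1) Cells in 96-well plates. 2) Compound, 48 h, 5 concentrations. 3) Linear interpolation between surrounding doses. 4) Unreached endpoint = highest concentration. GI50 is the concentration that inhibits growth by half.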 Activity calls are given as the source filed them. No stated cut-off is given here; in the data, active = GI50 up to about 1.1 µM and inactive = higher.

What was measured:
Assay in all cases: DTP human tumour cell line panel, 48 h
[1] = test system: KM12
[2] = test system: SF-539
[3] = test system: UACC-257
[4] = test system: OVCAR-3
[5] = test system: CCRF-CEM
[6] = test system: NCI-H460
[7] = test system: UO-31
[8] = test system: IGROV-1
[9] = test system: M14
[10] = test system: SF-295
[11] = test system: EKVX
[12] = test system: A549
[13] = test system: SW-620
[14] = test system: SF-268
[15] = test system: SR
[16] = test system: Malme-3M
[17] = test system: HCT-116
[18] = test system: RPMI-8226
[19] = test system: LOX IMVI

Row | Compound | GI50 [1] | GI50 [2] | GI50 [3] | GI50 [4] | GI50 [5] | GI50 [6] | GI50 [7] | GI50 [8] | GI50 [9] | GI50 [10] | GI50 [11] | GI50 [12] | GI50 [13] | GI50 [14] | GI50 [15] | GI50 [16] | GI50 [17] | GI50 [18] | GI50 [19]
1 | [O-]c1c2c(nn1-c1ccc(F)cc1)c1ccccc1c[n+]2Cc1ccccc1 | 1.43 µM (inactive) | 3.26 µM (inactive) | 11.5 µM (inactive) | 7.69 µM (inactive) | 0.401 µM (active) | 10.5 µM (inactive) | 10.2 µM (inactive) | 11.1 µM (inactive) | 1.79 µM (inactive) | 14.6 µM (inactive) | 19.4 µM (inactive) | 12.8 µM (inactive) | 14.8 µM (inactive) | 18.9 µM (inactive) | 1.55 µM (inactive) | 11.7 µM (inactive) | 16.4 µM (inactive) | 3.34 µM (inactive) | –
2 | O=[N+]([O-])c1ccc(-c2ccc(-c3csc(Nc4ccccn4)n3)o2)cc1 | 49.5 µM (inactive) | – | > 100 µM (inactive) | > 100 µM (inactive) | – | > 10 µM (inactive) | > 100 µM (inactive) | > 100 µM (inactive) | 59.6 µM (inactive) | 46.3 µM (inactive) | – | – | > 100 µM (inactive) | 19.7 µM (inactive) | > 100 µM (inactive) | 32.3 µM (inactive) | 47.9 µM (inactive) | > 100 µM (inactive) | 63.4 µM (inactive)
3 | CCC1=C(C[C@H]2NCCc3cc(OC)c(OC)cc32)C[C@H]2c3cc(OC)c(OC)cc3CCN2C1 | – | 0.0326 µM (active) | 0.0473 µM (active) | 0.0387 µM (active) | – | 0.0261 µM (active) | 0.316 µM (active) | 0.0445 µM (active) | 0.0235 µM (active) | 0.0331 µM (active) | 0.0362 µM (active) | 0.0317 µM (active) | 0.028 µM (active) | 0.0356 µM (active) | 0.0101 µM (active) | 0.136 µM (active) | 0.0173 µM (active) | 0.021 µM (active) | –
4 | CC(=O)NC1C(OCc2ccccc2)OC(CO)C(O)C1OC(C)C(=O)N[C@@H](C)C(=O)N[C@H](CCC(=O)OCCNc1c2ccccc2nc2cccc([N+](=O)[O-])c12)C(N)=O (stereo partly drawn) | 0.00114 µM (active) | 0.00313 µM (active) | 0.00339 µM (active) | 0.00142 µM (active) | 0.0189 µM (active) | 0.000129 µM (active) | 0.00292 µM (active) | 0.0215 µM (active) | 0.00109 µM (active) | 0.00427 µM (active) | 0.00165 µM (active) | 0.00146 µM (active) | 0.000191 µM (active) | 0.00394 µM (active) | 3.64e-05 µM (active) | 0.00158 µM (active) | 0.000195 µM (active) | 0.000782 µM (active) | –
5 | Cn1c(=O)c2c(nc3n2C(CCl)CO3)n(C)c1=O (stereo not drawn) | > 100 µM (inactive) | > 100 µM (inactive) | > 100 µM (inactive) | > 100 µM (inactive) | > 100 µM (inactive) | > 100 µM (inactive) | > 100 µM (inactive) | > 100 µM (inactive) | > 100 µM (inactive) | > 100 µM (inactive) | > 100 µM (inactive) | – | > 100 µM (inactive) | > 100 µM (inactive) | > 100 µM (inactive) | > 100 µM (inactive) | > 100 µM (inactive) | > 100 µM (inactive) | –
6 | CC(C)(C)c1ccc(OCCOCCOc2ccc(C(C)(C)C)cc2S(N)(=O)=O)c(S(N)(=O)=O)c1 | 52.1 µM (inactive) | > 100 µM (inactive) | 45.6 µM (inactive) | > 100 µM (inactive) | > 100 µM (inactive) | 34.9 µM (inactive) | 5.85 µM (inactive) | > 100 µM (inactive) | 61.4 µM (inactive) | > 100 µM (inactive) | > 100 µM (inactive) | 35.8 µM (inactive) | > 100 µM (inactive) | 97.3 µM (inactive) | – | 28.5 µM (inactive) | 17.4 µM (inactive) | 7.55 µM (inactive) | 23.7 µM (inactive)
7 | CC12CCCC(C#N)(C1)OC2=O (stereo not drawn) | > 100 µM (inactive) | > 100 µM (inactive) | > 100 µM (inactive) | > 100 µM (inactive) | > 100 µM (inactive) | > 100 µM (inactive) | > 100 µM (inactive) | > 100 µM (inactive) | > 100 µM (inactive) | > 100 µM (inactive) | > 100 µM (inactive) | > 100 µM (inactive) | > 100 µM (inactive) | > 100 µM (inactive) | > 100 µM (inactive) | > 100 µM (inactive) | > 100 µM (inactive) | – | –
8 | O=c1[nH]c(-c2ccc([N+](=O)[O-])cc2)nc2ccc(Cl)cc12 | > 100 µM (inactive) | > 100 µM (inactive) | > 100 µM (inactive) | – | – | – | > 100 µM (inactive) | 55.3 µM (inactive) | – | > 100 µM (inactive) | > 100 µM (inactive) | > 100 µM (inactive) | > 100 µM (inactive) | > 100 µM (inactive) | – | > 100 µM (inactive) | > 100 µM (inactive) | 47.1 µM (inactive) | –
9 | CC1(C)OC2C(CO)OC(N/C(=N/C#N)Oc3ccccc3)C2O1 (stereo not drawn) | > 100 µM (inactive) | > 100 µM (inactive) | > 100 µM (inactive) | > 100 µM (inactive) | > 100 µM (inactive) | > 100 µM (inactive) | > 100 µM (inactive) | > 100 µM (inactive) | > 100 µM (inactive) | > 100 µM (inactive) | > 100 µM (inactive) | > 100 µM (inactive) | > 100 µM (inactive) | > 100 µM (inactive) | > 100 µM (inactive) | – | > 100 µM (inactive) | > 100 µM (inactive) | > 100 µM (inactive)
10 | Cn1c(=O)c2ccccc2c2nc3ccccc3nc21 | > 100 µM (inactive) | 92.3 µM (inactive) | > 100 µM (inactive) | – | – | – | > 100 µM (inactive) | > 100 µM (inactive) | – | 59.2 µM (inactive) | > 100 µM (inactive) | > 100 µM (inactive) | > 100 µM (inactive) | > 100 µM (inactive) | > 100 µM (inactive) | > 100 µM (inactive) | > 100 µM (inactive) | > 100 µM (inactive) | –
11 | C/C(CC(=O)Nc1cc(Cl)c(Cl)cc1Cl)=N\NC(N)=O | > 100 µM (inactive) | > 100 µM (inactive) | > 100 µM (inactive) | > 100 µM (inactive) | > 100 µM (inactive) | – | > 100 µM (inactive) | > 100 µM (inactive) | > 100 µM (inactive) | > 100 µM (inactive) | > 100 µM (inactive) | > 100 µM (inactive) | > 100 µM (inactive) | > 100 µM (inactive) | – | > 100 µM (inactive) | > 100 µM (inactive) | > 100 µM (inactive) | > 100 µM (inactive)
12 | COC(=O)c1c(-c2ccccc2)cc2c3cc(-c4ccccc4)c(C(=O)OC)n3c3ccccc3n12 | > 100 µM (inactive) | > 100 µM (inactive) | > 100 µM (inactive) | > 100 µM (inactive) | > 100 µM (inactive) | > 100 µM (inactive) | > 100 µM (inactive) | > 100 µM (inactive) | > 100 µM (inactive) | > 100 µM (inactive) | > 100 µM (inactive) | > 100 µM (inactive) | > 100 µM (inactive) | > 100 µM (inactive) | – | > 100 µM (inactive) | > 100 µM (inactive) | > 100 µM (inactive) | > 100 µM (inactive)
13 | NCCC1([N+](=O)[O-])C=CN=CC1 (stereo not drawn) | > 100 µM (inactive) | > 100 µM (inactive) | > 100 µM (inactive) | – | > 100 µM (inactive) | > 100 µM (inactive) | > 100 µM (inactive) | > 100 µM (inactive) | > 100 µM (inactive) | > 100 µM (inactive) | > 100 µM (inactive) | > 100 µM (inactive) | > 100 µM (inactive) | > 100 µM (inactive) | > 100 µM (inactive) | > 100 µM (inactive) | > 100 µM (inactive) | > 100 µM (inactive) | –
14 | CN1CCCC2[C@@H]3CCC4c5nonc5CC[C@]4(C)C3CC[C@@]21C (stereo partly drawn) | > 100 µM (inactive) | > 100 µM (inactive) | 35 µM (inactive) | – | – | > 100 µM (inactive) | > 100 µM (inactive) | > 100 µM (inactive) | – | 43.2 µM (inactive) | > 100 µM (inactive) | > 100 µM (inactive) | > 100 µM (inactive) | – | > 100 µM (inactive) | > 100 µM (inactive) | > 100 µM (inactive) | > 100 µM (inactive) | –
15 | CC1CCC2(CC1)NN=c1s/c(=C\c3ccc(O)cc3)c(=O)n1N2 (stereo not drawn) | > 100 µM (inactive) | > 100 µM (inactive) | – | > 100 µM (inactive) | > 100 µM (inactive) | > 100 µM (inactive) | – | > 100 µM (inactive) | > 100 µM (inactive) | > 100 µM (inactive) | > 100 µM (inactive) | > 100 µM (inactive) | > 100 µM (inactive) | > 100 µM (inactive) | – | – | > 100 µM (inactive) | > 100 µM (inactive) | 81.8 µM (inactive)
16 | CCOC(=O)NC(=O)c1cn(CCCCCCOC(=O)NCCCCCCNC(=O)OCCCCCCn2cc(C(=O)NC(=O)OCC)c(=O)[nH]c2=O)c(=O)[nH]c1=O | > 100 µM (inactive) | > 100 µM (inactive) | > 100 µM (inactive) | > 100 µM (inactive) | > 100 µM (inactive) | > 100 µM (inactive) | > 100 µM (inactive) | > 100 µM (inactive) | > 100 µM (inactive) | > 100 µM (inactive) | > 100 µM (inactive) | > 100 µM (inactive) | > 100 µM (inactive) | > 100 µM (inactive) | – | > 100 µM (inactive) | > 100 µM (inactive) | > 100 µM (inactive) | > 100 µM (inactive)
